Measurements as given in patent US8563717B2, “Adenine derivatives” (GlaxoSmithKline LLC, priority 2008, dated 2013).
Counter-ions that a name gives are not always drawn.

How the values were obtained:
Format in all cases: cell-based
Interferon-α [1] = experiment: Induction of Interferon-α using cryopreserved human PBMCs; conditions: PBMC, 24 h incubation, normalised to 1 uM resiquimod, read-out: mean pEC50 for induction of IFN-α (converted)
Summary of the method: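 Cryopreserved healthy-donor PBMCs at 1×10^6 cells/ml in RPMI/10% FCS with 1000 units/ml IFN-gamma, exposed 24 h at 37 °C to 11-point two-fold compound dilutions. Supernatant IFN-α quantified by MSD electrochemiluminescence immunoassay; pEC50 from 4-parameter fit, normalised to 1 uM resiquimod and DMSO.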

Interferon-α [2] = experiment: Induction of Interferon-α using fresh human PBMCs; conditions: PBMC, 24 hr incubation, relative to 2 μM resiquimod control, read-out: mean pEC50 for induction of IFN-α (converted)
Description: (§1) Assay for the Induction of Interferon-α and TNF-α Using Fresh Human Peripheral Blood Mononuclear Cells (PBMCs)
(§2) Compounds were dissolved and serially diluted in DMSO to give 100× the required concentration range using a Biomek 2000. 1 ul of test compound was transferred into 96-well tissue culture plates using a Biomek FX. Each compound was assayed in duplicate for each donor. Each plate contained a dilution series of the TLR7/8 agonist resiquimod as standard and Column 11 contained 1 μl of 200 μM resiquimod (giving a 2 μM final concentration, used to define the approximate maximal response to resiquimod).
(§3) Blood samples from two human donors were collected into sodium heparin (10 U/ml). 25 ml volumes of whole blood were overlaid onto 15 mls Histopaque in Leucosep tubes which were centrifuged at 800 g for 20 min and the band at the plasma/histopaque interface carefully removed. The collected cells were centrifuged at 2500 rpm for 10 min. and the pellet resuspended in 10 ml of media (RPMI 1640 (Low endotoxin) supplemented with 10% v/v foetal calf serum (FCS, low endotoxin) 100 U/ml penicillin G, 100 μg/ml streptomycin, 10 mM L-glutamine and 1× non-essential amino acids). A 1:20 dilution of the cells was prepared using trypan blue & the cells counted using a haemocytometer. The PBMCs were diluted to give a final concentration of 2×10^6/ml and 100 ul of this cells suspension was added to wells containing 1 μl of diluted test compound.
(§4) The cell preparations were incubated for 24 hr. (37° C., 95% air, 5% CO2) after which a sample of the supernatant was removed using the Biomek FX and assayed for both IFN-α and TNF-α using the MSD (Mesoscale Discovery) electrochemiluminescence assay platform. The IFN-α assay was carried out similarly to that described above. The TNF-α assay was carried out as per kit instructions (Cat No K111BHB).
(§5) Cytokine released was expressed as a percentage of the 2 μM resiquimod control (column 11). This percentage was plotted against compound concentration and the pEC50 for the response determined by non-linear least squares curve fitting. For the IFN-α responses generally a 4 parameter logistic model was selected. For the TNF responses where a clear maximum response was obtained (i.e. a well defined plateau in the response was observed) then a 4 parameter model was generally used. If the upper asymptote of the curve wasn't well defined then the curve fitting was generally constrained to a maximal response of 100% (i.e., to the response to 2 μM resiquimod) or to the response of the highest concentration tested if this was greater than the resiquimod response. Some curves were bell shaped for one or both cytokines and the cytokine data on the down slope of the bell shaped response (i.e. concentrations above those giving the maximal response) were generally excluded from the fit, usually with the exception of the concentration immediately above the peak response. Curve fitting thus concentrated on the up slope of the dose response curve.

TNF-α = experiment: Induction of TNF-α using fresh human PBMCs; conditions: PBMC, 24 hr incubation, relative to 2 μM resiquimod control, read-out: mean pEC50 for induction of TNF-α (converted)
Description: as §1, §2, §3, §4, §5

Row | SMILES | EC50 (Interferon-α [2]) | EC50 (TNF-α) | EC50 (Interferon-α [1])
1 | CCCCOc1nc(N)c2[nH]c(=O)n(CC3CCCN(CC)C3)c2n1 (stereo not shown) [Example 1, 6-Amino-2-butoxy-9-[(1-ethyl-3-piperidinyl)methyl]-7,9-dihydro-8H-purin-8-one] | < 100 nM | > 1000 nM | < 1580 nM
2 | CCCCOc1nc(N)c2[nH]c(=O)n(CCC3CCCNC3)c2n1 (stereo not shown) [Example 29, 6-amino-2-(butyloxy)-9-[2-(3-piperidinyl)ethyl]-7,9-dihydro-8H-purin-8-one] | < 100 nM | > 1000 nM | < 1580 nM
3 | CCCCOc1nc(N)c2[nH]c(=O)n(CCC3CCCN(C4CCCCC4)C3)c2n1 (stereo not shown) [Example 38, 6-Amino-2-(butyloxy)-9-[2-(1-cyclohexyl-3-piperidinyl)ethyl]-7,9-dihydro-8H-purin-8-one] | < 1 nM | > 1000 nM | < 1580 nM
4 | CCC[C@H](C)Oc1nc(N)c2[nH]c(=O)n(CCC3CCCN(CC)C3)c2n1 (stereo partly drawn) [Example 41, 6-Amino-9-[2-(1-ethyl-3-piperidinyl)ethyl]-2-{[(1S)-1-methylbutyl]oxy}-7,9-dihydro-8H-purin-8-one] | < 0.316 nM | > 31.6 nM | < 1580 nM
5 | CCC[C@H](C)Oc1nc(N)c2[nH]c(=O)n(CCCCC3CCCN(CC)C3)c2n1 (stereo partly drawn) [Example 66, 6-Amino-9-[4-(1-ethyl-3-piperidinyl)butyl]-2-{[(1S)-1-methylbutyl]oxy}-7,9-dihydro-8H-purin-8-one] | < 0.316 nM | > 31.6 nM | < 1580 nM
6 | CCC[C@H](C)Oc1nc(N)c2[nH]c(=O)n(CCC3CCN(CC)CC3)c2n1 [Example 91, 6-Amino-9-[2-(1-ethyl-4-piperidinyl)ethyl]-2-{[(1S)-1-methylbutyl]oxy}-7,9-dihydro-8H-purin-8-one] | < 0.316 nM | > 31.6 nM | < 1580 nM
7 | CCCCOc1nc(N)c2[nH]c(=O)n(CCCC3CCN(CCC)CC3)c2n1 [Example 94, 6-Amino-2-(butyloxy)-9-[3-(1-propyl-4-piperidinyl)propyl]-7,9-dihydro-8H-purin-8-one] | < 1 nM | > 1000 nM | < 1580 nM
8 | CCCCOc1nc(N)c2[nH]c(=O)n(CCCCCC3CCN(C(C)C)CC3)c2n1 [Example 125, 6-Amino-2-(butyloxy)-9-{5-[1-(1-methylethyl)-4-piperidinyl]pentyl}-7,9-dihydro-8H-purin-8-one] | – | – | < 1580 nM
9 | CCCCOc1nc(N)c2[nH]c(=O)n(CCCCCC3CCN(CCCC)CC3)c2n1 [Example 126, 6-Amino-2-(butyloxy)-9-[5-(1-butyl-4-piperidinyl)pentyl]-7,9-dihydro-8H-purin-8-one] | – | – | < 1580 nM
10 | CCCCOc1nc(N)c2[nH]c(=O)n(CCCCCC3CCN(CC(C)C)CC3)c2n1 [Example 127, 6-Amino-2-(butyloxy)-9-{5-[1-(2-methylpropyl)-4-piperidinyl]pentyl}-7,9-dihydro-8H-purin-8-one hydrochloride] | – | – | < 1580 nM
11 | CCCCOc1nc(N)c2[nH]c(=O)n(CCCCCC3CCN(CCC(C)C)CC3)c2n1 [Example 128, 6-amino-2-(butyloxy)-9-{5-[1-(3-methylbutyl)-4-piperidinyl]pentyl}-7,9-dihydro-8H-purin-8-one] | – | – | < 1580 nM
12 | CCCCOc1nc(N)c2[nH]c(=O)n(CCCCCC3CCN(C4CCCC4)CC3)c2n1 [Example 129, 6-Amino-2-(butyloxy)-9-[5-(1-cyclopentyl-4-piperidinyl)pentyl]-7,9-dihydro-8H-purin-8-one] | – | – | < 1580 nM
13 | CCCCOc1nc(N)c2[nH]c(=O)n(CCCCCC3CCN(CC4CCCC4)CC3)c2n1 [Example 130, 6-Amino-2-(butyloxy)-9-{5-[1-(cyclopentylmethyl)-4-piperidinyl]pentyl}-7,9-dihydro-8H-purin-8-one hydrochloride] | – | – | < 1580 nM
14 | CCCCOc1nc(N)c2[nH]c(=O)n(CCCCCC3CCN(CCC4CCCCC4)CC3)c2n1 [Example 131, 6-Amino-2-(butyloxy)-9-{5-[1-(2-cyclohexylethyl)-4-piperidinyl]pentyl}-7,9-dihydro-8H-purin-8-one hydrochloride] | – | – | < 1580 nM
15 | CCCCOc1nc(N)c2[nH]c(=O)n(CCCCCCC3CCNCC3)c2n1 [Example 132, 6-Amino-2-(butyloxy)-9-[6-(4-piperidinyl)hexyl]-7,9-dihydro-8H-purin-8-one hydrochloride] | – | – | < 1580 nM
16 | CCCCOc1nc(N)c2[nH]c(=O)n(CCCCCCC3CCN(CC)CC3)c2n1 [Example 133, 6-Amino-2-(butyloxy)-9-[6-(1-ethyl-4-piperidinyl)hexyl]-7,9-dihydro-8H-purin-8-one] | – | – | < 1580 nM
17 | CCCCOc1nc(N)c2[nH]c(=O)n(CCCCCCC3CCN(C(C)C)CC3)c2n1 [Example 134, 6-Amino-2-(butyloxy)-9-{6-[1-(1-methylethyl)-4-piperidinyl]hexyl}-7,9-dihydro-8H-purin-8-one] | – | – | < 1580 nM

Continued, in another order:

Row | EC50 (Interferon-α [2]) | EC50 (TNF-α) | SMILES | EC50 (Interferon-α [1])
18 | < 100 nM | > 1000 nM | CCCCOc1nc(N)c2[nH]c(=O)n(CC3CCN(CC)CC3)c2n1 [Example 7] | < 1580 nM
19 | < 0.316 nM | > 31.6 nM | CCCCOc1nc(N)c2[nH]c(=O)n(CCCC3CCCCN3CC(C)C)c2n1 (stereo not shown) [Example 18, 6-Amino-2-(butyloxy)-9-{3-[1-(2-methylpropyl)-2-piperidinyl]propyl}-7,9-dihydro-8H-purin-8-one] | < 1580 nM
20 | < 100 nM | > 1000 nM | CCCCOc1nc(N)c2[nH]c(=O)n(CC3CCCN(CCC)C3)c2n1 (stereo not shown) [Example 23, 6-Amino-2-(butyloxy)-9-[(1-propyl-3-piperidinyl)methyl]-7,9-dihydro-8H-purin-8-one] | < 1580 nM
21 | < 100 nM | > 1000 nM | CCCCOc1nc(N)c2[nH]c(=O)n(CC3CCCN(C(C)C)C3)c2n1 (stereo not shown) [Example 24, 6-Amino-2-(butyloxy)-9-{[1-(1-methylethyl)-3-piperidinyl]methyl}-7,9-dihydro-8H-purin-8-one] | < 1580 nM
22 | < 10 nM | > 1000 nM | CCCCOc1nc(N)c2[nH]c(=O)n(CCC3CCCN(CC)C3)c2n1 (stereo not shown) [Example 30, 6-Amino-2-(butyloxy)-9-[2-(1-ethyl-3-piperidinyl)ethyl]-7,9-dihydro-8H-purin-8-one] | < 1580 nM
23 | < 1 nM | > 1000 nM | CCCCOc1nc(N)c2[nH]c(=O)n(CCC3CCCN(C(C)C)C3)c2n1 (stereo not shown) [Example 32, 6-Amino-2-(butyloxy)-9-{2-[1-(1-methylethyl)-3-piperidinyl]ethyl}-7,9-dihydro-8H-purin-8-one] | < 1580 nM
24 | < 0.316 nM | > 31.6 nM | CCC[C@H](C)Oc1nc(N)c2[nH]c(=O)n(CCC3CCCN(C(C)C)C3)c2n1 (stereo partly drawn) [Example 42, 6-Amino-2-{[(1S)-1-methylbutyl]oxy}-9-{2-[1-(1-methylethyl)-3-piperidinyl]ethyl}-7,9-dihydro-8H-purin-8-one] | < 1580 nM
25 | < 10 nM | > 1000 nM | CCCCOc1nc(N)c2[nH]c(=O)n(CCCCCC3CCCN(C(C)C)C3)c2n1 (stereo not shown) [Example 69, 6-Amino-2-(butyloxy)-9-{5-[1-(1-methylethyl)-3-piperidinyl]pentyl}-7,9-dihydro-8H-purin-8-one] | < 1580 nM
26 | < 100 nM | > 1000 nM | CCCCOc1nc(N)c2[nH]c(=O)n(CCC3CCN(C(C)C)CC3)c2n1 [Example 81, 6-Amino-2-(butyloxy)-9-{2-[1-(1-methylethyl)-4-piperidinyl]ethyl}-7,9-dihydro-8H-purin-8-one] | < 1580 nM
27 | < 10 nM | > 1000 nM | CCCCOc1nc(N)c2[nH]c(=O)n(CCCC3CCN(C(C)C)CC3)c2n1 [Example 95, 6-Amino-2-(butyloxy)-9-{3-[1-(1-methylethyl)-4-piperidinyl]propyl}-7,9-dihydro-8H-purin-8-one] | < 1580 nM
